Test results: patent US8247211B2, “Glycopeptide antibiotics” (American Cyanamid Company, priority 2001, dated 2012)
Values after ≈ are worked out from the molar mass of the structure shown.

Experiments:
[1] = Anatomic pathology (heart and kidney histopathology) in mice; format: in vivo, CD-1 mice; details: 20 mg/kg intravenously daily for 9 days, microscopic histopathology on day 10
In short: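 Juvenile CD-1 mice (20 days old; 5 vehicle, 5 treated) received glycopeptide antibiotic 20 mg/kg i.v. daily for 9 days. Necropsied tissues formalin-fixed, paraffin-embedded, H&E stained and examined microscopically; findings graded slight to severe versus controls.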

[2] = system: Enterococcus sp.; test: In vitro antibacterial evaluation: minimum inhibitory concentration (MIC), broth dilution method; format: cell-based; details: 18 hours at 35° C.
In short: (§1)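 Following NCCLS approved standard M7-A2, compounds are serially diluted from 64 to 0.06 μg/mL in Muller-Hinton II […] and inoculated at 5×10^5 CFU/mL; the MIC is the minimum concentration at which growth is inhibited.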

[3] = system: Streptococcus sp.; test: as above; format: cell-based; details: 18 hours at 35° C.
In short: as §1

[4] = system: Escherichia coli; test: as above; format: cell-based; details: 18 hours at 35° C.
In short: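 NCCLS M7-A2 broth dilution with Mueller-Hinton II, testing 64-0.06 μg/mL antibiotic against 5×10^5 CFU/mL inocula. Test strains include recent methicillin-, penicillin- or vancomycin-resistant clinical isolates. MIC is the lowest concentration preventing growth.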

[5] = system: Staphylococcus sp.; test: as above; format: cell-based; details: 18 hours at 35° C.
In short: as §1

[6] = system: Staphylococcus aureus-SMITH (GC 4543); test: Acute lethal infection in mice (ED50); format: in vivo; details: female CD-1 mice, intraperitoneal challenge, intravenous dose 30 min. after infection, 7 day survival ratios
In short: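 Median effective dose is calculated from 7-day survival ratios pooled across three separate tests. Mice (female CD-1) receive an intraperitoneal bacterial challenge in broth or hog gastric mucin, then intravenous drug 30 min later, five animals per dose level.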

[7] = Enterococcus faecalis (ATCC 29212)
[8] = Enterococcus faecalis (GC 2242)
[9] = Enterococcus faecalis (GC 2691)
[10] = Enterococcus faecalis (GC 3059)
[11] = Enterococcus faecalis (GC 4552)
[12] = Enterococcus faecalis (GC 4553)
[13] = Enterococcus faecalis (GC 4554)
[14] = Enterococcus faecalis (GC 6189)
[15] = broth dilution, inoculum 5×10^5 CFU/mL
[16] = Streptococcus pneumoniae (ATCC 6301)
[17] = Streptococcus pneumoniae (GC 1894)
[18] = Streptococcus pneumoniae (GC 4565)

## COc1ccc2cc(COCC3OC(OC4C(CO)OC(Oc5ccc(CC6NC(=O)C(C(C)c7ccccc7)NC(=O)CNC(=O)C(CO)NC(=O)C(C(O)C7CNC(=N)N7C7OC(CO)C(O)C(O)C7O)NC(=O)C(C(O)C7CNC(=N)N7)NC6=O)cc5)C(O)C4O)C(O)C(O)C3O)ccc2c1 (stereo not drawn) [Example 230, Cyclo[glycyl-β-methylphenylalanyl-O-[4-O-[6-O-[(6-methoxy-2-naphthyl)methyl]hexopyranosyl]hexopyranosyl]tyrosyl-3-(2-iminoimidazolidin-4-yl)seryl-3-(3-hexopyranosyl-2-iminoimidazolidin-4-yl)serylseryl]]
[1]
  Anatomical Pathology (Day 10), Heart: 0
  Anatomical Pathology (Day 10), Kidney: +++
[2]; Enterococcus avium (GC 4558)
  MIC Enterococcus avium (GC 4558): 8 µg/mL (≈ 5.46 µM)
[2]; [7]
  MIC Enterococcus faecalis (ATCC 29212): 8 µg/mL (≈ 5.46 µM)
[2]; [8]
  MIC Enterococcus faecalis (GC 2242): 8 µg/mL (≈ 5.46 µM)
[2]; [9]
  MIC Enterococcus faecalis (GC 2691): 4 µg/mL (≈ 2.73 µM)
[2]; [10]
  MIC Enterococcus faecalis (GC 3059): 8 µg/mL (≈ 5.46 µM)
[2]; [11]
  MIC Enterococcus faecalis (GC 4552): 8 µg/mL (≈ 5.46 µM)
[2]; [12]
  MIC Enterococcus faecalis (GC 4553): 8 µg/mL (≈ 5.46 µM)
[2]; [13]
  MIC Enterococcus faecalis (GC 4554): 8 µg/mL (≈ 5.46 µM)
[2]; [14]
  MIC Enterococcus faecalis (GC 6189): 4 µg/mL (≈ 2.73 µM)
[2]; Enterococcus faecium (GC 2243)
  MIC Enterococcus faecium (GC 2243): 8 µg/mL (≈ 5.46 µM)
[2]; Enterococcus faecium (GC 4556)
  MIC Enterococcus faecium (GC 4556): 8 µg/mL (≈ 5.46 µM)
[2]; Enterococcus faecium (GC 4557)
  MIC Enterococcus faecium (GC 4557): 2 µg/mL (≈ 1.36 µM)
[2]; [15]
  MIC Enterococcus avium (GC 4558): 8 µg/mL (≈ 5.46 µM)
  MIC Enterococcus faecalis (ATCC 29212): 8 µg/mL (≈ 5.46 µM)
  MIC Enterococcus faecalis (GC 2242): 8 µg/mL (≈ 5.46 µM)
  MIC Enterococcus faecalis (GC 2691): 4 µg/mL (≈ 2.73 µM)
  MIC Enterococcus faecalis (GC 3059): 8 µg/mL (≈ 5.46 µM)
  MIC Enterococcus faecalis (GC 4552): 8 µg/mL (≈ 5.46 µM)
  MIC Enterococcus faecalis (GC 4553): 8 µg/mL (≈ 5.46 µM)
  MIC Enterococcus faecalis (GC 4554): 8 µg/mL (≈ 5.46 µM)
  MIC Enterococcus faecalis (GC 6189): 4 µg/mL (≈ 2.73 µM)
  MIC Enterococcus faecium (GC 2243): 8 µg/mL (≈ 5.46 µM)
  MIC Enterococcus faecium (GC 4556): 8 µg/mL (≈ 5.46 µM)
  MIC Enterococcus faecium (GC 4557): 2 µg/mL (≈ 1.36 µM)
[3]; Streptococcus agalactiae (GC 4564)
  MIC Streptococcus agalactiae (GC 4564): 0.5 µg/mL (≈ 0.341 µM)
[3]; [16]
  MIC Streptococcus pneumoniae (ATCC 6301): 0.12 µg/mL (≈ 0.0819 µM)
[3]; [17]
  MIC Streptococcus pneumoniae (GC 1894): <0.06 µg/mL
[3]; [18]
  MIC Streptococcus pneumoniae (GC 4565): 0.12 µg/mL (≈ 0.0819 µM)
[3]; Streptococcus pyogenes (GC 4563)
  MIC Streptococcus pyogenes (GC 4563): 0.25 µg/mL (≈ 0.171 µM)
[3]; [15]
  MIC Streptococcus agalactiae (GC 4564): 0.5 µg/mL (≈ 0.341 µM)
  MIC Streptococcus pneumoniae (ATCC 6301): 0.12 µg/mL (≈ 0.0819 µM)
  MIC Streptococcus pneumoniae (GC 1894): <0.06 µg/mL
  MIC Streptococcus pneumoniae (GC 4565): 0.12 µg/mL (≈ 0.0819 µM)
  MIC Streptococcus pyogenes (GC 4563): 0.25 µg/mL (≈ 0.171 µM)
[4]
  MIC Escherichia coli (ATCC 25922): 64 µg/mL (≈ 43.7 µM)
  MIC Escherichia coli (GC 4559): >64 µg/mL
[4]; Escherichia coli (GC 4560)
  MIC Escherichia coli (GC 4560): 1 µg/mL (≈ 0.682 µM)
[5]
  MIC Coagulase Negative Staphylococcus (GC 4547): 1 µg/mL (≈ 0.682 µM)
  MIC Staphylococcus aureus (ATCC 29213): 2 µg/mL (≈ 1.36 µM)
  MIC Staphylococcus aureus (GC 1131): 2 µg/mL (≈ 1.36 µM)
  MIC Staphylococcus aureus (GC 3051): 2 µg/mL (≈ 1.36 µM)
  MIC Staphylococcus aureus (GC 3053): 2 µg/mL (≈ 1.36 µM)
  MIC Staphylococcus aureus (GC 4541): 1 µg/mL (≈ 0.682 µM)
  MIC Staphylococcus aureus (GC 4544): 2 µg/mL (≈ 1.36 µM)
  MIC Staphylococcus aureus (GC 4545): 1 µg/mL (≈ 0.682 µM)
  MIC Staphylococcus aureus-SMITH (GC 4543): 1 µg/mL (≈ 0.682 µM)
[5]; Coagulase Negative Staphylococcus (GC 4548)
  MIC Coagulase Negative Staphylococcus (GC 4548): 0.5 µg/mL (≈ 0.341 µM)
[5]; Coagulase Negative Staphylococcus (GC 4549)
  MIC Coagulase Negative Staphylococcus (GC 4549): 1 µg/mL (≈ 0.682 µM)
[5]; Coagulase Negative Staphylococcus (GC 4551)
  MIC Coagulase Negative Staphylococcus (GC 4551): 2 µg/mL (≈ 1.36 µM)
[5]; Coagulase Negative Staphylococcus (GC 6257)
  MIC Coagulase Negative Staphylococcus (GC 6257): 0.5 µg/mL (≈ 0.341 µM)
[5]; Staphylococcus aureus (GC 4542)
  MIC Staphylococcus aureus (GC 4542): 2 µg/mL (≈ 1.36 µM)
[5]; Staphylococcus haemolyticus (GC 4546)
  MIC Staphylococcus haemolyticus (GC 4546): 1 µg/mL (≈ 0.682 µM)
[6]
  median effective dose (ED50), Staphylococcus aureus-SMITH (GC 4543): 0.12 mg/kg

## COc1ccc2cc(COC3C(CO)OC(OC4C(CO)OC(Oc5ccc(CC6NC(=O)C(C(C)c7ccccc7)NC(=O)CNC(=O)C(CO)NC(=O)C(C(O)C7CNC(=N)N7C7OC(CO)C(O)C(O)C7O)NC(=O)C(C(O)C7CNC(=N)N7)NC6=O)cc5)C(O)C4O)C(O)C3O)ccc2c1 (stereo not drawn) [Example 230a, Cyclo[glycyl-β-methylphenylalanyl-O-[4-O-[4-O-[(6-methoxy-2-naphthyl)methyl]hexopyranosyl]hexopyranosyl]tyrosyl-3-(2-iminoimidazolidin-4-yl)seryl-3-(3-hexopyranosyl-2-iminoimidazolidin-4-yl)serylseryl]]
[1]
  Anatomical Pathology (Day 10), Heart: 0
  Anatomical Pathology (Day 10), Kidney: +
[2]; Enterococcus avium (GC 4558)
  MIC Enterococcus avium (GC 4558): 2 to 4 µg/mL
[2]; [7]
  MIC Enterococcus faecalis (ATCC 29212): 2 to 4 µg/mL
[2]; [8]
  MIC Enterococcus faecalis (GC 2242): 2 to 4 µg/mL
[2]; [9]
  MIC Enterococcus faecalis (GC 2691): 2 to 4 µg/mL
[2]; [10]
  MIC Enterococcus faecalis (GC 3059): 2 to 4 µg/mL
[2]; [11]
  MIC Enterococcus faecalis (GC 4552): 2 to 4 µg/mL
[2]; [12]
  MIC Enterococcus faecalis (GC 4553): 2 to 4 µg/mL
[2]; [13]
  MIC Enterococcus faecalis (GC 4554): 2 to 4 µg/mL
[2]; [14]
  MIC Enterococcus faecalis (GC 6189): 1 to 4 µg/mL
[2]; Enterococcus faecium (GC 2243)
  MIC Enterococcus faecium (GC 2243): 2 to 4 µg/mL
[2]; Enterococcus faecium (GC 4556)
  MIC Enterococcus faecium (GC 4556): 2 to 4 µg/mL
[2]; Enterococcus faecium (GC 4557)
  MIC Enterococcus faecium (GC 4557): 1 to 2 µg/mL
[2]; [15]
  MIC Enterococcus avium (GC 4558): 2 to 4 µg/mL
  MIC Enterococcus faecalis (ATCC 29212): 2 to 4 µg/mL
  MIC Enterococcus faecalis (GC 2242): 2 to 4 µg/mL
  MIC Enterococcus faecalis (GC 2691): 2 to 4 µg/mL
  MIC Enterococcus faecalis (GC 3059): 2 to 4 µg/mL
  MIC Enterococcus faecalis (GC 4552): 2 to 4 µg/mL
  MIC Enterococcus faecalis (GC 4553): 2 to 4 µg/mL
  MIC Enterococcus faecalis (GC 4554): 2 to 4 µg/mL
  MIC Enterococcus faecalis (GC 6189): 1 to 4 µg/mL
  MIC Enterococcus faecium (GC 2243): 2 to 4 µg/mL
  MIC Enterococcus faecium (GC 4556): 2 to 4 µg/mL
  MIC Enterococcus faecium (GC 4557): 1 to 2 µg/mL
[3]; [16]
  MIC Streptococcus pneumoniae (ATCC 6301): <0.06 µg/mL
[3]; [17]
  MIC Streptococcus pneumoniae (GC 1894): <0.06 µg/mL
[3]; [18]
  MIC Streptococcus pneumoniae (GC 4565): <0.06 µg/mL
[3]; [15]
  MIC Streptococcus pneumoniae (ATCC 6301): <0.06 µg/mL
  MIC Streptococcus pneumoniae (GC 1894): <0.06 µg/mL
  MIC Streptococcus pneumoniae (GC 4565): <0.06 µg/mL
[4]
  MIC Escherichia coli (ATCC 25922): 32 µg/mL (≈ 21.8 µM)
  MIC Escherichia coli (GC 4559): 32 µg/mL (≈ 21.8 µM)
[5]
  MIC Coagulase Negative Staphylococcus (GC 4547): 0.5 to 2 µg/mL
  MIC Staphylococcus aureus (ATCC 29213): 1 to 2 µg/mL
  MIC Staphylococcus aureus (GC 1131): 0.5 to 2 µg/mL
  MIC Staphylococcus aureus (GC 3051): 1 to 2 µg/mL
  MIC Staphylococcus aureus (GC 3053): 1 to 2 µg/mL
  MIC Staphylococcus aureus (GC 4541): 0.5 to 2 µg/mL
  MIC Staphylococcus aureus (GC 4544): 1 to 2 µg/mL
  MIC Staphylococcus aureus (GC 4545): 0.5 to 1 µg/mL
  MIC Staphylococcus aureus-SMITH (GC 4543): 0.5 to 2 µg/mL
[6]
  median effective dose (ED50), Staphylococcus aureus-SMITH (GC 4543): 0.06 mg/kg
